Strand notation (5' to 3'): a small letter for the sugar, then the base; units joined by * are phosphorothioate-linked, units joined directly phosphodiester-linked; [ ] holds rarer units or linkages, { } end groups; capitals alone tell only the bases. k = constrained ethyl (cEt); [5mC] = 5-methylcytosine; d = 2'-deoxy (DNA)
Tested on: Yap1 mRNA
Assay: Antisense inhibition of human Yap1 in A-431 cells by cEt gapmers, single dose (Example 2, RTS4814)
Format: cell-based
Procedure, shortened: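 Read-out is Yap1 mRNA as percent of untreated cells, by real-time RT-PCR (probe set RTS4814) normalized to total RNA via RIBOGREEN. Cells were A-431 dosed with 2,000 nM gapmer without transfection for approximately 48 hours.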

[1] = A-431 cells, 5,000 cells per well, free uptake, 2,000 nM modified oligonucleotide, approx. 48 hours, RTS4814, normalized to RIBOGREEN, Table 4, asterisk (*) = targets amplicon region of primer probe set
[2] = Table 32, Yap1 mRNA, percent of untreated control, 3-10-3 cEt gapmers targeting SEQ ID NO.: 1, and 2
[3] = Table 18, A-431 cells, 5,000 cells per well, free uptake, 2,000 nM modified oligonucleotide, approx. 48 hours, RTS4814, normalized to RIBOGREEN, Yap1 mRNA as percent of untreated control
[4] = Table 23, Yap1 mRNA as percent of untreated control, 3-10-3 cEt gapmers, single dose
[5] = Table 24, Yap1 mRNA as percent of untreated control, 3-10-3 cEt gapmers targeting SEQ ID NO.: 1, and 2
[6] = Table 21, Yap1 mRNA, percent of untreated control, 3-10-3 cEt gapmers targeting SEQ ID NO.: 1 and 2
[7] = Yap1 mRNA as percent of untreated control, A-431 cells, 3-10-3 cEt gapmers targeting SEQ ID NO.: 1, and 2, Table 30
[8] = Table 20, Yap1 mRNA, percent of untreated control, 3-10-3 cEt gapmers targeting SEQ ID NO.: 1 and 2
[9] = Table 19, A-431 cells, 5,000 cells per well, free uptake, 2,000 nM modified oligonucleotide, approx. 48 hours, RTS4814, normalized to RIBOGREEN, Yap1 mRNA as percent of untreated control
[10] = Table 25, Yap1 mRNA as percent of untreated control, 3-10-3 cEt gapmers targeting SEQ ID NO.: 1, and 2
[11] = Yap1 mRNA as percent of untreated control, A-431 cells, 3-10-3 cEt gapmers targeting SEQ ID NO.: 1, and 2, Table 31

716445 (kG*kT*kA*dT*dG*dT*dG*dG*d[5mC]*dA*dA*dT*dA*kA*kT*kT; antisense) [Compound 716445]
YAP1 (% UTC) [1]: 28 % UTC

1076082 (kT*k[5mC]*kT*d[5mC]*dA*dA*dT*dA*d[5mC]*dA*d[5mC]*dT*dA*kT*kA*kT; antisense) [compound 1076082]
YAP1 (% UTC) [2]: 38 % UTC

1074500 (k[5mC]*kT*kA*d[5mC]*dA*dA*dT*dA*dA*d[5mC]*d[5mC]*dA*dT*k[5mC]*k[5mC]*k[5mC]; antisense) [Compound 1074500]
YAP1 (% UTC) [3]: 10 % UTC

1075465 (antisense kG*kA*kT*dT*dT*dA*dT*dT*dG*dA*dA*d[5mC]*dT*kG*kA*kG) [Compound 1075465]
YAP1 (% UTC) [4]: 7 % UTC

1074346 (antisense kA*kT*k[5mC]*dT*dG*dA*dG*d[5mC]*dT*dA*dT*dT*dG*kG*kT*k[5mC]) [Compound 1074346]
YAP1 (% UTC) [5]: 10 % UTC

1075570 (kG*kA*kT*dA*d[5mC]*dT*dA*dA*dG*d[5mC]*dA*d[5mC]*dA*kG*kA*kG; antisense) [compound 1075570]
YAP1 (% UTC) [2]: 16 % UTC

1075497 (kA*kT*kT*dA*dT*dA*dT*dA*dA*dT*dG*d[5mC]*dA*kG*kG*k[5mC]; antisense) [Compound 1075497]
YAP1 (% UTC) [4]: 14 % UTC

1074919 (antisense k[5mC]*kT*k[5mC]*dA*dA*dG*dT*dT*dA*d[5mC]*dA*dT*d[5mC]*k[5mC]*k[5mC]*kG) [Compound 1074919]
YAP1 (% UTC) [6]: 48 % UTC

1076434 (k[5mC]*kT*kT*dT*dA*dG*dG*dT*dT*dT*dA*dT*dG*k[5mC]*k[5mC]*kT; antisense) [compound 1076434]
YAP1 (% UTC) [2]: 25 % UTC

1074928 (antisense kA*kT*kA*d[5mC]*dA*dA*d[5mC]*dA*dG*dG*d[5mC]*d[5mC]*dT*kG*k[5mC]*kA) [compound 1074928]
YAP1 (% UTC) [7]: 83 % UTC

1075506 (k[5mC]*kA*kT*dA*dA*dA*dG*dG*dT*dG*dA*d[5mC]*dA*kG*k[5mC]*k[5mC]; antisense) [compound 1075506]
YAP1 (% UTC) [2]: 66 % UTC

716482 (k[5mC]*kT*kA*dT*d[5mC]*d[5mC]*dA*dG*dG*dG*dT*d[5mC]*dA*kA*kT*kT; antisense) [Compound 716482]
YAP1 (% UTC) (Table 5, A-431 cells, 5,000 cells per well, free uptake, 2,000 nM modified oligonucleotide, approx. 48 hours, RTS4814, normalized to RIBOGREEN, Yap1 mRNA relative to untreated control cells): 83 % UTC

1074182 (antisense kG*k[5mC]*k[5mC]*d[5mC]*dG*dG*dG*dA*dT*d[5mC]*d[5mC]*dA*dT*kG*kG*k[5mC]) [Compound 1074182]
YAP1 (% UTC) [8]: 82 % UTC

716436 (kA*k[5mC]*kT*dG*dG*dA*d[5mC]*dA*dA*dA*dG*dG*dA*kA*kG*k[5mC]; antisense) [Compound 716436]
YAP1 (% UTC) [1]: 59 % UTC

1074341 (antisense kA*kT*k[5mC]*d[5mC]*d[5mC]*dG*dG*dG*dA*dG*dA*dA*dG*kA*k[5mC]*kA) [Compound 1074341]
YAP1 (% UTC) [9]: 106 % UTC

716375 (kG*kA*kG*dA*d[5mC]*dT*dA*d[5mC]*dT*d[5mC]*d[5mC]*dA*dG*kT*kG*kG; antisense) [Compound 716375]
YAP1 (% UTC) (Table 6, A-431 cells, 5,000 cells per well, free uptake, 2,000 nM modified oligonucleotide, approx. 48 hours, RTS4814, normalized to RIBOGREEN, Yap1 mRNA relative to untreated control cells): 63 % UTC

1074377 (antisense kA*kA*kA*d[5mC]*dG*dG*dT*dT*d[5mC]*dT*dG*d[5mC]*dT*kG*kT*kG) [Compound 1074377]
YAP1 (% UTC) [4]: 52 % UTC

1076520 (antisense kA*kA*kT*dT*dA*dT*dA*dT*dG*d[5mC]*dA*dG*d[5mC]*kA*kG*k[5mC]) [Compound 1076520]
YAP1 (% UTC) (Table 22, Yap1 mRNA as percent of untreated control, 3-10-3 cEt gapmers, single dose): 21 % UTC

1076231 (kT*kT*kA*dG*dA*dA*dA*dT*dG*dG*dA*d[5mC]*dT*kG*kG*kG; antisense) [Compound 1076231]
YAP1 (% UTC) [6]: 16 % UTC

1075571 (antisense k[5mC]*kA*kA*dA*dT*dA*dG*dA*dT*dA*d[5mC]*dT*dA*kA*kG*k[5mC]) [compound 1075571]
YAP1 (% UTC) (Table 33, Yap1 mRNA, percent of untreated control, 3-10-3 cEt gapmers targeting SEQ ID NO.: 1, and 2): 54 % UTC

1076005 (kG*kT*kA*d[5mC]*dA*dA*dA*dA*dT*d[5mC]*dT*d[5mC]*d[5mC]*kA*kG*kG; antisense) [Compound 1076005]
YAP1 (% UTC) [9]: 69 % UTC

716424 (kG*k[5mC]*kA*dA*dT*dG*dG*dA*d[5mC]*dA*dA*dG*dG*kA*kA*kG; antisense) [Compound 716424]
YAP1 (% UTC) [1]: 25 % UTC

1076242 (kA*kT*kG*d[5mC]*dA*dA*dT*dA*dA*dG*dG*dA*dA*k[5mC]*kA*kG; antisense) [compound 1076242]
YAP1 (% UTC) [2]: 33 % UTC

1074596 (antisense kT*kT*k[5mC]*dT*dA*dT*d[5mC]*d[5mC]*dA*dG*dG*dG*dT*k[5mC]*kA*kA) [Compound 1074596]
YAP1 (% UTC) [3]: 12 % UTC

1075435 (antisense k[5mC]*kT*kT*dA*dA*dA*d[5mC]*dG*dA*dT*dA*dA*dA*kG*kT*kA) [Compound 1075435]
YAP1 (% UTC) [10]: 93 % UTC

1076241 (k[5mC]*kA*kA*dT*dA*dA*dG*dG*dA*dA*d[5mC]*dA*dG*kT*kT*kT; antisense) [compound 1076241]
YAP1 (% UTC) [11]: 42 % UTC

1075538 (kG*kA*kA*dT*dT*dG*dG*dA*dA*d[5mC]*dA*d[5mC]*d[5mC]*kT*k[5mC]*kA; antisense) [compound 1075538]
YAP1 (% UTC) [2]: 66 % UTC

1075274 (antisense kA*kA*kT*dA*dA*dT*d[5mC]*d[5mC]*dA*dG*d[5mC]*d[5mC]*dT*kA*kG*kG) [Compound 1075274]
YAP1 (% UTC) [5]: 86 % UTC

1075794 (k[5mC]*kA*kT*dA*dA*dT*dG*dA*dA*dT*dG*dT*dG*kG*kG*kT; antisense) [compound 1075794]
YAP1 (% UTC) [2]: 38 % UTC

1074469 (k[5mC]*k[5mC]*k[5mC]*dA*d[5mC]*d[5mC]*dG*dA*d[5mC]*d[5mC]*d[5mC]*dT*dG*k[5mC]*k[5mC]*kA; antisense) [Compound 1074469]
YAP1 (% UTC) [9]: 77 % UTC

1075697 (kA*kA*kT*dA*dA*dT*d[5mC]*d[5mC]*dA*dT*dG*d[5mC]*dT*kT*kG*k[5mC]; antisense) [compound 1075697]
YAP1 (% UTC) [11]: 16 % UTC

1074534 (antisense kT*kA*kA*dT*dA*dG*d[5mC]*dT*d[5mC]*dT*dT*dT*d[5mC]*kT*kA*kG) [Compound 1074534]
YAP1 (% UTC) [8]: 88 % UTC

1074443 (kT*k[5mC]*kA*dG*dA*d[5mC]*d[5mC]*dA*dG*dT*dA*dA*dA*kT*k[5mC]*kA; antisense) [Compound 1074443]
YAP1 (% UTC) [10]: 7 % UTC

1075591 (kG*kT*kA*dA*dT*dA*dA*dT*d[5mC]*dA*d[5mC]*d[5mC]*dT*kT*kA*k[5mC]; antisense) [Compound 1075591]
YAP1 (% UTC) [6]: 76 % UTC

1074666 (antisense k[5mC]*kA*kT*dA*dT*dA*d[5mC]*d[5mC]*d[5mC]*dA*dA*dT*dT*kT*kT*kG) [Compound 1074666]
YAP1 (% UTC) [5]: 16 % UTC

1076075 (kA*k[5mC]*kA*d[5mC]*dA*dA*dG*dG*dG*dT*dT*dG*d[5mC]*kT*kA*kA; antisense) [Compound 1076075]
YAP1 (% UTC) [10]: 38 % UTC

1074891 (antisense kT*kG*kA*dA*dG*dT*dT*dT*dA*dG*d[5mC]*d[5mC]*dT*kG*kA*kA) [Compound 1074891]
YAP1 (% UTC) [10]: 31 % UTC

1075141 (antisense kT*kA*kT*dA*d[5mC]*dG*dA*dG*dA*dA*dG*dT*dT*kG*kA*kA) [Compound 1075141]
YAP1 (% UTC) [9]: 54 % UTC

1074321 (antisense kG*kG*kG*d[5mC]*dT*dA*dA*d[5mC]*dT*d[5mC]*d[5mC]*dT*dG*kA*k[5mC]*kA) [compound 1074321]
YAP1 (% UTC) [11]: 73 % UTC

1075793 (k[5mC]*kA*kT*dT*dA*dG*dT*dT*dG*d[5mC]*d[5mC]*d[5mC]*dT*kG*kA*k[5mC]; antisense) [compound 1075793]
YAP1 (% UTC) [11]: 31 % UTC

1076272 (kT*kT*kA*dG*dA*dA*d[5mC]*dA*dA*d[5mC]*dT*dA*d[5mC]*kT*kA*k[5mC]; antisense) [compound 1076272]
YAP1 (% UTC) [7]: 53 % UTC

1074226 (antisense k[5mC]*kT*kG*dT*d[5mC]*dG*dA*dA*dG*dA*dT*dG*d[5mC]*kT*kG*kA) [compound 1074226]
YAP1 (% UTC) [2]: 10 % UTC

From patent US11214803B2, “Modulators of YAP1 expression” (Ionis Pharmaceuticals, Inc., priority 2019, dated 2022)
